Results reported in patent US6747033B2, “Fungicidal triazolopyrimid-7-ylideneamines” (BASF Aktiengesellschaft, priority 2000, dated 2004).
Where two headings read alike, the source gives them in different places.

Key:
Pythium ultimum = test: In vitro fungicidal activity, Fruit rot (PYTHUL); assay type: cell-based; parameters: key: 0: None; 3: slight; 5: moderate; 7: severe; 9: complete; settings: 3-7 days of incubation
Experimental: (§1) Test compounds are dissolved in acetone to give concentrations of 25, 10 and 1 ppm and are added to individual cell Walls (24-cell-well plates, Corning), which were previously filled with a suspension of ground plates, Corning), which were previously filled with a suspension of ground fungal mycelium in a chemically defined growth medium. After 3-7 days of incubation, inhibition of […] growth is recorded using the following scale: The data obtained are shown in Table II. [table]

Venturia inaequalis = test: In vivo fungicidal activity, Apple Scab (AS); also: ranges in brackets are in %
[1] = test system: Pseudocercosporella herpotrichoides; test: In vitro fungicidal activity, Cereal eye spot (PSDCHE); assay type: cell-based; parameters: key: 0: None; 3: slight; 5: moderate; 7: severe; 9: complete; settings: 3-7 days of incubation
Experimental: as §1

Plasmopara viticola = test: In vivo fungicidal activity, Grape downy mildew (GDM); also: ranges in brackets are in %
Botrytis cinera = test: In vivo fungicidal activity, Pepper Botrytis (PB); also: ranges in brackets are in %
Cercospora beticola = test: In vivo fungicidal activity, Sugar Beet Cercospora (SBC); also: ranges in brackets are in %
Alternara solani = test: In vivo fungicidal activity, Tomato early blight (TEB); also: ranges in brackets are in %
Blumeria graminis = test: In vivo fungicidal activity, Wheat powdery mildew (WPM); also: ranges in brackets are in %
Rhizoctonia solani = test: In vitro fungicidal activity, Rice sheath blight (RHIZSO); assay type: cell-based; parameters: key: 0: None; 3: slight; 5: moderate; 7: severe; 9: complete; settings: 3-7 days of incubation
Experimental: as §1

[2] = test system: Pyricularia grisea f. sp. oryzae; assay type: in vivo; settings: Rice Blast

Row | Compound | PYTHU inhibition of mycelial growth rating (Pythium ultimum; 1 ppm) | PYTHU inhibition of mycelial growth rating (Pythium ultimum; 10 ppm) | PYTHU inhibition of mycelial growth rating (Pythium ultimum; 25 ppm) | AS disease control rating (Venturia inaequalis; 12.5 ppm spray) | AS disease control rating (Venturia inaequalis; 50 ppm spray) | AS disease control rating (Venturia inaequalis; 200 ppm spray) | PSDCH inhibition of mycelial growth rating ([1]; 1 ppm) | PSDCH inhibition of mycelial growth rating ([1]; 10 ppm) | PSDCH inhibition of mycelial growth rating ([1]; 25 ppm) | GDM disease control rating (Plasmopara viticola; 12.5 ppm spray) | GDM disease control rating (Plasmopara viticola; 50 ppm spray) | GDM disease control rating (Plasmopara viticola; 200 ppm spray) | PB disease control rating (Botrytis cinera; 12.5 ppm spray) | PB disease control rating (Botrytis cinera; 50 ppm spray) | PB disease control rating (Botrytis cinera; 200 ppm spray) | SBC disease control rating (Cercospora beticola; 12.5 ppm spray) | SBC disease control rating (Cercospora beticola; 50 ppm spray) | SBC disease control rating (Cercospora beticola; 200 ppm spray) | TEB disease control rating (Alternara solani; 12.5 ppm spray) | TEB disease control rating (Alternara solani; 50 ppm spray) | other results
1 | CCn1cnn2c(=NC(C)C(F)(F)F)c(-c3c(F)cc(F)cc3F)c(Cl)nc12 (stereo not drawn) [Example 10] | 0 | 3 | 5 | 0 (0) | 0 (0) | 6 (75-89) | 0 | 0 | 0 | 0 (0) | 0 (0) | 0 (0) | 4 (45-59) | 0 (0) | 0 (0) | 3 (30-44) | 6 (75-89) | 6 (75-89) | 0 (0) | 4 (45-59) | TEB disease control rating (Alternara solani; 200 ppm spray): 5 (60-74); WPM disease control rating (Blumeria graminis; 12.5 ppm spray): 0 (0); WPM disease control rating (Blumeria graminis; 50 ppm spray): 0 (0); WPM disease control rating (Blumeria graminis; 200 ppm spray): 0 (0); RHIZSO inhibition of mycelial growth rating (Rhizoctonia solani; 1 ppm): 0; RHIZSO inhibition of mycelial growth rating (Rhizoctonia solani; 10 ppm): 5; RHIZSO inhibition of mycelial growth rating (Rhizoctonia solani; 25 ppm): 5; RB disease control rating ([2]; 12.5 ppm spray): 0 (0); RB disease control rating ([2]; 50 ppm spray): 4 (45-59); RB disease control rating ([2]; 200 ppm spray): 6 (75-89)
2 | CCn1c(Cl)c(-c2c(F)cc(F)cc2F)c(=NC(C)C(F)(F)F)n2ncnc12 (stereo not drawn) [Example 3] | 0 | 0 | 0 | 0 (0) | 0 (0) | 6 (75-89) | 0 | 1 | 1 | 0 (0) | 4 (45-59) | 4 (45-59) | 2 (15-29) | 0 (0) | 0 (0) | 0 (0) | 0 (0) | 0 (0) | 3 (30-44) | 3 (30-44) | TEB disease control rating (Alternara solani; 200 ppm spray): 0 (0); WPM disease control rating (Blumeria graminis; 12.5 ppm spray): 0 (0); WPM disease control rating (Blumeria graminis; 50 ppm spray): 0 (0); WPM disease control rating (Blumeria graminis; 200 ppm spray): 3 (30-44); RHIZSO inhibition of mycelial growth rating (Rhizoctonia solani; 1 ppm): 3; RHIZSO inhibition of mycelial growth rating (Rhizoctonia solani; 10 ppm): 5; RHIZSO inhibition of mycelial growth rating (Rhizoctonia solani; 25 ppm): 5; RB disease control rating ([2]; 12.5 ppm spray): 0 (0); RB disease control rating ([2]; 50 ppm spray): 0 (0); RB disease control rating ([2]; 200 ppm spray): 5 (60-74)
3 | N-[5-chloro-3-methyl-6-(2,4,6-trifluorophenyl)-4H-[1,2,4]triazolo[1,5-α]pyrimidin-7-ylidene]-N-(2,2,2-trifluoroethyl)-amine [Example 1B] | 0 | 1 | 5 | 4 (45-59) | 4 (45-59) | 5 (60-74) | 0 | 1 | 3 | 0 (0) | 0 (0) | 7 (90-95) | 0 (0) | 0 (0) | 6 (75-89) | 0 (0) | 6 (75-89) | 6 (75-89) | 0 (0) | 2 (15-29) | TEB disease control rating (Alternara solani; 200 ppm spray): 4 (45-59); WPM disease control rating (Blumeria graminis; 12.5 ppm spray): 0 (0); WPM disease control rating (Blumeria graminis; 50 ppm spray): 0 (0); WPM disease control rating (Blumeria graminis; 200 ppm spray): 0 (0); RHIZSO inhibition of mycelial growth rating (Rhizoctonia solani; 1 ppm): 5; RHIZSO inhibition of mycelial growth rating (Rhizoctonia solani; 10 ppm): 5; RHIZSO inhibition of mycelial growth rating (Rhizoctonia solani; 25 ppm): 5; RB disease control rating ([2]; 12.5 ppm spray): 0 (0); RB disease control rating ([2]; 50 ppm spray): 0 (0); RB disease control rating ([2]; 200 ppm spray): 5 (60-74)
4 | Cn1c(Cl)c(-c2c(F)cc(F)cc2F)c(=NCC(F)(F)F)n2ncnc12 [Example 1A, N-(5-chloro-4-methyl-6-(2,4,6-trifluorophenyl)-4H[1,2,4]triazolo[1,5-α]pyrimidin-7-ylidene]-N-(2,2,2-trifluoroethyl)-amine] | 0 | 0 | 0 | 0 (0) | 6 (75-89) | 9 (100) | 0 | 0 | 0 | 5 (60-74) | 6 (75-89) | 4 (45-59) | 0 (0) | 5 (60-74) | 0 (0) | 0 (0) | 6 (75-89) | 8 (96-99) | 0 (0) | 0 (0) | TEB disease control rating (Alternara solani; 200 ppm spray): 3 (30-44); WPM disease control rating (Blumeria graminis; 12.5 ppm spray): 0 (0); WPM disease control rating (Blumeria graminis; 50 ppm spray): 7 (90-95); WPM disease control rating (Blumeria graminis; 200 ppm spray): 8 (96-99); RHIZSO inhibition of mycelial growth rating (Rhizoctonia solani; 1 ppm): 5; RHIZSO inhibition of mycelial growth rating (Rhizoctonia solani; 10 ppm): 7; RHIZSO inhibition of mycelial growth rating (Rhizoctonia solani; 25 ppm): 7; RB disease control rating ([2]; 12.5 ppm spray): 0 (0); RB disease control rating ([2]; 50 ppm spray): 0 (0); RB disease control rating ([2]; 200 ppm spray): 6 (75-89)
5 | CCCOc1cc(F)c(-c2c(Cl)nc3n(CCC)cnn3c2=NC(C)C(F)(F)F)c(F)c1 (stereo not drawn) [Example 9] | 0 | 0 | 0 | 0 (0) | 6 (75-89) | 6 (75-89) | 3 | 3 | 5 | 5 (60-74) | 3 (30-44) | 3 (30-44) | 2 (15-29) | 1 (1-14) | 2 (15-29) | 8 (96-99) | 8 (96-99) | 8 (96-99) | 6 (75-89) | 8 (96-99) | TEB disease control rating (Alternara solani; 200 ppm spray): 9 (100); WPM disease control rating (Blumeria graminis; 12.5 ppm spray): 2 (15-29); WPM disease control rating (Blumeria graminis; 50 ppm spray): 6 (75-89); WPM disease control rating (Blumeria graminis; 200 ppm spray): 7 (90-95); RHIZSO inhibition of mycelial growth rating (Rhizoctonia solani; 1 ppm): 7; RHIZSO inhibition of mycelial growth rating (Rhizoctonia solani; 10 ppm): 7; RHIZSO inhibition of mycelial growth rating (Rhizoctonia solani; 25 ppm): 7; RB disease control rating ([2]; 12.5 ppm spray): 0 (0); RB disease control rating ([2]; 50 ppm spray): 3 (30-44); RB disease control rating ([2]; 200 ppm spray): 4 (45-59)
